Data as given in patent US20070128217A1 (priority 2003, published 2007).

Key:
[1] = system: antibodies in sera from SARS patients (sera 1a, 1b, 2, 6, 37, 62, London, SARS-yellow, SARS-green); assay type: binding, human; design: Binding of serum 6 to linear peptides of protein X1 of SARS-CoV Urbani / Binding of serum 37 to linear peptides of protein X1 of SARS-CoV Urbani / Binding of serum 6 to looped/cyclic peptide (PEPSCAN-ELISA) / Binding of serum 37 to looped/cyclic peptide (PEPSCAN-ELISA) / Binding of serum 37 to looped/cyclic peptides of protein X1 of SARS-CoV Urbani / Binding of serum 6 to linear peptides of protein X2 / Binding of serum 37 to linear peptides of protein X2 / Binding of serum 37 to looped/cyclic peptides of protein X2 of SARS-CoV Urbani / Binding of serum 6 to linear peptides of protein M of SARS-CoV Urbani / Binding of serum 37 to linear peptides of protein M of SARS-CoV Urbani / Binding of serum 6 to looped/cyclic peptides of protein M of SARS-CoV Urbani / Binding of serum 37 to looped/cyclic peptides of protein M of SARS-CoV Urbani / Binding of serum 6 to linear peptides of protein X3 of SARS-CoV Urbani / Binding of serum 37 to linear peptides of protein X3 of SARS-CoV Urbani / Binding of serum 37 to looped/cyclic peptides of protein X3 of SARS-CoV Urbani / Binding of serum 6 to linear peptides of protein X4 of SARS-CoV Urbani / Binding of serum 37 to linear peptides of protein X4 of SARS-CoV Urbani / Binding of serum 37 to looped/cyclic peptides of protein X4 of SARS-CoV Urbani / Binding of serum 6 to linear peptides of protein X5 of SARS-CoV Urbani / Binding of serum 37 to linear peptides of protein X5 of SARS-CoV Urbani / Binding of serum 37 to looped/cyclic peptides of protein X5 of SARS-CoV Urbani / Binding of serum 6 to linear peptides of protein N of SARS-CoV Urbani / Binding of serum 37 to linear peptides of protein N of SARS-CoV Urbani / Binding of serum 6 to linear peptide (PEPSCAN-ELISA) / Binding of serum 1a to looped/cyclic peptides of protein N of SARS-CoV Urbani / Binding of serum 1b to looped/cyclic peptides of protein N of SARS-CoV Urbani / Binding of serum 2 to looped/cyclic peptides of protein N of SARS-CoV Urbani / Binding of serum 6 to looped/cyclic peptides of protein N of SARS-CoV Urbani / Binding of serum 37 to looped/cyclic peptides of protein N of SARS-CoV Urbani / Binding of serum 62 to looped/cyclic peptides of protein N of SARS-CoV Urbani / Binding of serum London to looped/cyclic peptides of protein N of SARS-CoV Urbani / Binding of serum SARS-green to looped/cyclic peptides of protein N of SARS-CoV Urbani: unit not given here
[2] = system: rabbit serum obtained by immunizing a rabbit with the SARS-CoV strain Frankfurt 1; assay type: binding; design: Binding of a rabbit serum to linear peptides / Binding of a rabbit serum to looped peptides / Rabbit serum linear peptides / Rabbit serum looped peptides / Binding of a rabbit serum to linear peptides of protein N of SARS-CoV Urbani (Rabbit serum linear peptides) / Binding of a rabbit serum to looped/cyclic peptides of protein N of SARS-CoV Urbani (Rabbit serum looped peptides): unit not given here
[3] = system: control sera (pooled serum of ten healthy LUMC hospital workers; commercial negative donor pooled serum from the Dutch bloodbank); assay type: binding, human; design: Binding of Control serum LUMC to linear peptides / Binding of Control serum Blood-bank to linear peptides / Binding of Control serum LUMC to looped peptides / Binding of Control Serum Blood-Bank to Looped peptides / Binding of Control serum LUMC to linear peptides of the protein M of SARS-CoV Urbani / Binding of Control serum Blood-bank to linear peptides of the protein M of SARS-CoV Urbani / Binding of Control serum LUMC to looped peptides of the protein M of SARS-CoV Urbani / Binding of Control Serum Blood-Bank to Looped peptides of the protein M of SARS-CoV Urbani: unit not given here
[4] = system: recombinant human anti-SARS-CoV antibody 03-018; assay type: binding; design: Binding of antibody 03-018 to linear peptides of the N protein of SARS-CoV Urbani / Binding of antibody 03-018 to looped/cyclic peptides of the N protein of SARS-CoV Urbani: unit not given here

Sequence | Binding of serum 1a to linear peptides of protein N of SARS-CoV Urbani [1] | Binding of serum 1a to looped/cyclic peptides of protein N of SARS-CoV Urbani [1] | Binding of serum 1b to linear peptides of protein N of SARS-CoV Urbani [1] | Binding of serum 1b to looped/cyclic peptides of protein N of SARS-CoV Urbani [1] | Binding of serum 2 to linear peptides of protein N of SARS-CoV Urbani [1] | Binding of serum 2 to looped/cyclic peptides of protein N of SARS-CoV Urbani [1] | Binding of serum 6 to linear peptides of protein N of SARS-CoV Urbani [1] | Binding of serum 6 to looped/cyclic peptides of protein N of SARS-CoV Urbani [1] | Binding of serum 37 to linear peptides of protein N of SARS-CoV Urbani [1] | Binding of serum 37 to looped/cyclic peptides of protein N of SARS-CoV Urbani [1] | Binding of serum 62 to linear peptides of protein N of SARS-CoV Urbani [1] | Binding of serum 62 to looped/cyclic peptides of protein N of SARS-CoV Urbani [1] | Binding of serum London to linear peptides of protein N of SARS-CoV Urbani [1] | Binding of serum London to looped/cyclic peptides of protein N of SARS-CoV Urbani [1] | Binding of serum SARS-green to linear peptides of protein N of SARS-CoV Urbani [1] | Binding of serum SARS-green to looped/cyclic peptides of protein N of SARS-CoV Urbani [1] | Binding of serum SARS-yellow to linear peptides of protein N of SARS-CoV Urbani [1] | Binding of serum SARS-yellow to looped/cyclic peptides of protein N of SARS-CoV Urbani [1] | Binding of a rabbit serum to linear peptides of protein N of SARS-CoV Urbani (Rabbit serum linear peptides) [2] | Binding of a rabbit serum to looped/cyclic peptides of protein N of SARS-CoV Urbani (Rabbit serum looped peptides) [2] | further results
QHGKEELRFPRGQGV | 0.2 | 0.4 | 0.2 | 0.3 | 0.3 | 0.5 | 0.1 | 0.4 | 0.7 | 0.6 | 0.7 | 0.4 | 0.5 | 0.6 | 0.4 | 0.4 | 0.6 | 0.7 | 0.2 | 0.5 | Binding of Control Serum Blood-Bank to Looped peptides [3]: 0.7; Binding of Control serum Blood-bank to linear peptides [3]: 0.8; Binding of Control serum LUMC to linear peptides [3]: 0.7; Binding of Control serum LUMC to looped peptides [3]: 0.7; Binding of antibody 03-018 to linear peptides of the N protein of SARS-CoV Urbani [4]: 0.1; Binding of antibody 03-018 to looped/cyclic peptides of the N protein of SARS-CoV Urbani [4]: 0.2
PSGTWLTYHGAIKLD | 0.3 | 0.2 | 0.2 | 0.1 | 0.2 | 0.2 | 0.2 | 0.1 | 1.0 | 0.4 | 0.8 | 0.3 | 0.7 | 0.3 | 0.6 | 0.1 | 0.7 | 0.1 | 0.1 | 0.0 | Control Serum Blood-Bank Looped peptides [3]: 0.4; Control serum Blood-bank linear peptides [3]: 0.7; Control serum LUMC linear peptides [3]: 0.6; Control serum LUMC looped peptides [3]: 0.4; Binding of antibody 03-018 to linear peptides of the N protein of SARS-CoV Urbani [4]: 0.1; Binding of antibody 03-018 to looped/cyclic peptides of the N protein of SARS-CoV Urbani [4]: 0.2
QRSAPRITFGGPTDS | 0.2 | 0.4 | 0.1 | 0.3 | 0.1 | 0.4 | 0.1 | 0.4 | 0.6 | 0.7 | 0.6 | 0.5 | 0.5 | 0.9 | 0.2 | 0.4 | 0.5 | 0.6 | 0.3 | 1.2 | Binding of Control Serum Blood-Bank to Looped peptides [3]: 0.7; Binding of Control serum Blood-bank to linear peptides [3]: 0.6; Binding of Control serum LUMC to linear peptides [3]: 0.5; Binding of Control serum LUMC to looped peptides [3]: 0.7; Recognition of the peptide by antibody 03-018 [4]: recognized
IGYYRRATRRVRGGD | 0.2 | 0.3 | 0.1 | 0.2 | 0.1 | 0.5 | 0.2 | 0.3 | 0.5 | 0.7 | 0.4 | 0.6 | 0.4 | 0.4 | 0.2 | 0.3 | 0.6 | 0.5 | – | – | Recognition of the peptide by the rabbit serum [2]: recognized; Binding of Control Serum Blood-Bank to Looped peptides [3]: 0.7; Binding of Control serum Blood-bank to linear peptides [3]: 0.7; Binding of Control serum LUMC to linear peptides [3]: 0.5; Binding of Control serum LUMC to looped peptides [3]: 0.7; Binding of antibody 03-018 to linear peptides of the N protein of SARS-CoV Urbani [4]: 0.1; Binding of antibody 03-018 to looped/cyclic peptides of the N protein of SARS-CoV Urbani [4]: 0.2
